Experimental data from patent US20170270277A1, “METHOD FOR SUPERVISING CONSUMPTION OF A MEDICAL FOOD FOR PREVENTION AND/OR MANAGEMENT OF A DISEASE OR CONDITION” (Photonz Corporation Ltd., priority 2012, published 2017).

Experiment: Laboratory test of the patient's serum lipids after consumption of the medical food, change from baseline (Example 4)
Assay type: in vivo
Conditions: 'one or more of'
From the text: “Blood data” as used herein includes levels of cholesterol, diglycerides and triglycerides amongst other parameters described herein. Blood data parameters can be measured in accordance with any clinically acceptable methodology. For example, triglycerides, total cholesterol, HDL-C and fasting blood sugar can be sampled from serum and analyzed using standard photometry techniques. VLDL-TG, LDL-C and VLDL-C can be calculated or determined using serum lipoprotein fractionation by preparative ultracentrifugation and subsequent quantitative analysis by refractometry or by analytic ultracentrifugal methodology. Apo AI, Apo B and hsCRP can be determined from serum using standard nephelometry techniques. Lipoprotein (a) can be determined from serum using standard turbidimetric immunoassay techniques. LDL particle number and particle size can be determined using nuclear magnetic resonance (NMR) spectrometry. Remnants lipoproteins and LDL-phospholipase A2 can be determined from EDTA plasma or serum and serum, respectively, using enzymatic immunoseparation techniques. Oxidized LDL, intercellular adhesion molecule-1 and interleukin-6 levels can be determined from serum using standard enzyme immunoassay techniques. These techniques are described in detail in standard textbooks, for example Tietz Fundamentals of Clinical Chemistry, 6th Ed. (Burtis, Ashwood and Borter Eds.), WB Saunders Company. In one embodiment, subjects fast for up to 12 hours prior to blood sample collection, for example about 10 hours.
This is a further example of one particular embodiment of practicing the invention. The results presented in this example are expected to be generated.
A patient is concerned about maintaining good cardiovascular health and advises a medical professional of this desire. The patient may be risk of developing or be diagnosed of having mixed dyslipidemia, hyperlipidemia and hypertriglyceridemia.
The medical professional sets up a laboratory in accordance with clinically acceptable methodologies to determine the patient's serum lipids including triglycerides, total cholesterol, HDL cholesterol, LDL cholesterol and fasting blood sugar. The patient may have one or more of: a baseline triglyceride level of about 300 mg/dl to about 1500 mg/dl; baseline non-HDL-C value of about 200 mg/dl to about 400 mg/dl; baseline total cholesterol value of about 250 mg/dl to about 400 mg/dl; baseline vLDL-C value of about 140 mg/dl to about 200 mg/dl; baseline HDL-C value of about 10 to about 60 mg/dl; and/or baseline LDL-C value of about 50 to about 300 mg/dl.
Additional patient registration data including age, sex, weight, relative level of fitness and health, history of illness, family history of illness, and current prescribed pharmaceutical medications and medical foods and dosages, are also accumulated as a data set on a back end computer. The medical professional queries the backend computer about the patient's laboratory data and lifestyle metrics and this back end computer calculates the dose of the EPA-ethyl ester to be provided to the patient as a medical food for a certain period of time based on the analyzed metrics in order for that patient's serum lipids to be returned to normal levels with a low risk of cardiovascular disease. […]
After consumption of the medical food for the specified period of time, the patient receives another laboratory test of their serum lipids and the data is analyzed for changes from the original baseline on the back end computer. […]

[1] = same patient and medical food dosing

CC/C=C\C/C=C\C/C=C\C/C=C\C/C=C\CCCC(=O)OCC [EPA-ethyl ester, eicosapentaenoyl-ethyl ester]
triglyceride levels compared to baseline (patient at risk of or with mixed dyslipidemia, hyperlipidemia, hypertriglyceridemia, 1 to 4 g of at least 60% pure EPA-ethyl ester 1 to 4 times per day): reduced | Apo B levels compared to baseline [1]: reduced | HDL-C levels compared to baseline [1]: increased | non-HDL-C levels compared to baseline [1]: a reduction | vLDL levels compared to baseline [1]: a reduction
